Measurements: US10351522B2, “Sulfonamide derivative and pharmaceutically acceptable acid addition salt thereof” (UNIVERSITY OF TSUKUBA, priority 2015, dated 2019)

How the values were obtained:
[1] = target: T1, human OX1R (Homo sapiens, UniProt O43613); assay: Agonist activity against OX1R: intracellular calcium (Fura-2AM, FDSS7000) in CHOOX1R cells; format: cell-based; conditions: relative to orexin-A as full agonist (100%); for Emax at 0.1 µM / Emax at 1 µM / Emax at 10 µM: read-out: Response (%) OX1R
T1 construct: expressed in transfected cells; host or cells: CHO (Chinese hamster ovary) cells, line CHOOX1R, co-expressing NFAT-luciferase
T1 sequence (O43613 1-425): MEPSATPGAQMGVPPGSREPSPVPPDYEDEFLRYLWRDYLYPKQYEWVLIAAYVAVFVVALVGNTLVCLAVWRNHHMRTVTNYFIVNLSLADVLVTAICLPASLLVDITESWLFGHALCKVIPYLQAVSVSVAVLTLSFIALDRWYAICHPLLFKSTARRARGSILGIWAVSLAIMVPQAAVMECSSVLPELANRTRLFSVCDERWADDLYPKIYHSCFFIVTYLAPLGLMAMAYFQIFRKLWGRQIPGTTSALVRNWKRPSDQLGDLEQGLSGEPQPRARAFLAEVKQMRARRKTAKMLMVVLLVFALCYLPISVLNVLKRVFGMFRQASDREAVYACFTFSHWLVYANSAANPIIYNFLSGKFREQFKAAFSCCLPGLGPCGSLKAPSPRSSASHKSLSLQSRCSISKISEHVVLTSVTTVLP
Protocol: (§1) Evaluation of Agonist Activity Against OX1R and OX2R
(§2) NAFT-luciferase gene and human OX1R gene were constitutively expressed in CHO cell, which is a cell line derived from Chinese hamster ovary to establish a cell line (CHOOX1R) and NAFT-luciferase gene and human OX2R gene were constitutively expressed in CHO cell to establish a cell line (CHOOX2R). The respective cells were seeded in a 96-well Multiplate at 10,000 cells/well and cultured in a 5% FBS (Thermo Scientific)-added DMEM medium (Sigma-Aldrich) for 48 hr. The medium was removed, an assay buffer (20 mM HEPES (Sigma-Aldrich), Hanks' balanced salt solution (Gibco), 0.1% BSA (Sigma-Aldrich), 2.5 mM probenecid acid (Wako Pure Chemical Industries, Ltd.)) (100 μL) containing 5 μM Fura-2AM (Cayman Chemical) was added, and the cells were incubated for 60 min. The buffer containing Fura-2AM was removed, and an assay buffer (75 μL) was added. An assay buffer (25 μL) containing a test compound was added thereto to start the reaction. Changes in the intracellular calcium ion concentration due to the reaction were measured by measuring the fluorescence intensity ratio by dual wavelength excitation at 340 and 380 nm, by using FDSS7000 (Hamamatsu Photonics K.K.). The test compound was dissolved in DMSO to 10 mM, and diluted with the assay buffer to a final concentration of 10^−7M to 10^−5M (final concentration of DMSO 1%).
(§3) (As used herein, Response in Table 21 to Table 27 is a value obtained by dividing the agonist activity value, when the test compound is evaluated with orexin-A as a full-agonist (maximum value of agonist activity: 100%), at 10 μM, 1.0 μM, 0.1 μM by the agonist activity value of orexin-A.)

[2] = target: T2, human OX2R (Homo sapiens, UniProt O43614); assay: Agonist activity against OX2R: intracellular calcium (Fura-2AM, FDSS7000) in CHOOX2R cells; format: cell-based; conditions: relative to orexin-A as full agonist (100%)
T2 construct: expressed in transfected cells; host or cells: CHO (Chinese hamster ovary) cells, line CHOOX2R, co-expressing NFAT-luciferase
T2 sequence (O43614 1-444): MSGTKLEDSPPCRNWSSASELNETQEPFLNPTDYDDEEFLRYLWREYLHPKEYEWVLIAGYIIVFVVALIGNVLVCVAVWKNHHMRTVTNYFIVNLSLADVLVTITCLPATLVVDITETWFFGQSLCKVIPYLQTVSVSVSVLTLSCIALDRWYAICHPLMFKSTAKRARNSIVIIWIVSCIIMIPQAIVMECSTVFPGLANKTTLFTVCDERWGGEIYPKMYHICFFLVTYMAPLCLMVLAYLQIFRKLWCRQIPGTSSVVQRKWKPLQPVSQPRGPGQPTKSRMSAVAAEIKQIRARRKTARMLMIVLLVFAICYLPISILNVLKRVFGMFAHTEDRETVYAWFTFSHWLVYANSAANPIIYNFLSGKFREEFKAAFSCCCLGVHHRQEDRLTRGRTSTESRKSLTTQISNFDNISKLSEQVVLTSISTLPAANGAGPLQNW
Protocol: as §1, §2, §3

Row | Response (%) OX1R ([1]; test compound 0.1 μM) | Response (%) OX1R ([1]; test compound 1.0 μM) | Response (%) OX1R ([1]; test compound 10 μM) | Response (%) OX2R ([2]; test compound 0.1 μM) | Response (%) OX2R ([2]; test compound 1.0 μM) | Response (%) OX2R ([2]; test compound 10 μM) | Response (%) OX1R ([1]; 0.1 μM test compound) | Response (%) OX1R ([1]; 1.0 μM test compound) | Response (%) OX1R ([1]; 10 μM test compound) | Response (%) OX2R ([2]; 0.1 μM test compound) | Response (%) OX2R ([2]; 1.0 μM test compound) | Response (%) OX2R ([2]; 10 μM test compound) | Emax at 0.1 µM ([1]; test compound 0.1 μM) | Emax at 1 µM ([1]; test compound 1.0 μM) | Emax at 10 µM ([1]; test compound 10 μM) | Compound
1 | 25% | 86% | 84% | 107% | 81% | 72% |  |  |  |  |  |  |  |  |  | COc1ccc(-c2cccc(C(=O)N(C)C)c2)cc1S(=O)(=O)Nc1cccc(N2CCCN(c3ccccc3N(C)C)C2=O)c1 [Example 133]
2 |  |  |  |  |  |  | 9% | 8% | 13% | 6% | 7% | 9% |  |  |  | COc1ccc(-c2cccc(C(=O)N(C)C)c2)cc1S(=O)(=O)Nc1cccc(NC(=O)Nc2cccc(NC(=O)OC(C)(C)C)c2)c1 [Example 62]
3 |  |  |  |  |  |  | 9% | 9% | 7% | 8% | 55% | 66% |  |  |  | COc1ccc(-c2cccc(C(=O)N(C)C)c2)cc1S(=O)(=O)Nc1cccc(NC(=O)Nc2cccc(N)c2)c1 [Example 63]
4 | 8% | 14% | 83% | 94% | 66% | 64% |  |  |  |  |  |  |  |  |  | COc1ccc(-c2cccc(C(=O)N(C)C)c2)cc1S(=O)(=O)Nc1cccc(N2CCCN(c3ccc(N(C)C)cc3)C2=O)c1 [Example 135]
5 | <5% | <5% | <5% | 7% | 7% | 10% |  |  |  |  |  |  |  |  |  | COc1ccc(-c2cccc(C(=O)N(C)C)c2)cc1S(=O)(=O)Nc1ccc(NC(=O)Nc2cccc(N(C)C)c2)cc1 [Example 122]
6 |  |  |  | 49% | 85% | 98% |  |  |  |  |  |  | < 5% | < 5% | < 5% | CCOc1ccc(-c2cccc(C(=O)N(C)C)c2)cc1S(=O)(=O)Nc1cccc(NC(=O)Nc2cccc(N(C)C)c2)c1 [Example 119, 3′-(N-(3-(3-(3-(dimethylamino)phenyl)ureido)phenyl)sulfamoyl)-4′-ethoxy-N,N-dimethyl-[1,1′-biphenyl]-3-carboxamide]
7 |  |  |  | 6% | 6% | 24% |  |  |  |  |  |  | < 5% | < 5% | < 5% | COc1ccc(C(=O)NCc2ccccc2)cc1S(=O)(=O)Nc1cccc(NC(=O)Nc2ccc(N(C)C)cc2)c1 [Example 108, N-benzyl-3-(N-(3-(3-(4-(dimethylamino)phenyl)ureido)phenyl)sulfamoyl)-4-methoxybenzamide]
8 |  |  |  |  |  |  | <5% | <5% | <5% | <5% | <5% | <5% |  |  |  | COc1ccc(-c2cccc(C(=O)N(C)C)c2)cc1S(=O)(=O)Nc1cccc(NC(=O)Nc2cccc(NC(=NC(=O)OC(C)(C)C)NC(=O)OC(C)(C)C)c2)c1 [Example 64]

Continued, molecule first:

Row | Compound | Response (%) OX1R ([1]; test compound 0.1 μM) | Response (%) OX1R ([1]; test compound 1.0 μM) | Response (%) OX1R ([1]; test compound 10 μM) | Response (%) OX2R ([2]; test compound 0.1 μM) | Response (%) OX2R ([2]; test compound 1.0 μM) | Response (%) OX2R ([2]; test compound 10 μM) | Response (%) OX1R ([1]; 0.1 μM test compound) | Response (%) OX1R ([1]; 1.0 μM test compound) | Response (%) OX1R ([1]; 10 μM test compound) | Response (%) OX2R ([2]; 0.1 μM test compound) | Response (%) OX2R ([2]; 1.0 μM test compound) | Response (%) OX2R ([2]; 10 μM test compound) | Emax at 0.1 µM ([1]; test compound 0.1 μM) | Emax at 1 µM ([1]; test compound 1.0 μM) | Emax at 10 µM ([1]; test compound 10 μM)
9 | COc1ccc(-c2cccc(C(=O)N(C)C)c2)cc1S(=O)(=O)Nc1cccc(NCc2ccccc2C)c1 [Example 24] |  |  |  |  |  |  | <5% | <5% | 6% | <5% | 72% | 93% |  |  | 
10 | COc1ccc(-c2cccc(C(=O)N(C)C)c2)cc1S(=O)(=O)Nc1cccc(Nc2cccc(C(F)(F)F)c2)c1 [Example 35] |  |  |  |  |  |  | <5% | <5% | <5% | <5% | 35% | 63% |  |  | 
11 | COc1ccc(-c2cccc(C(=O)N(C)C)c2)cc1S(=O)(=O)Nc1cccc(NCc2ccccc2O)c1 [Example 26] |  |  |  |  |  |  | <5% | <5% | 9% | <5% | 51% | 101% |  |  | 
12 | COc1ccc(-c2cccc(C(=O)N(C)C)c2)cc1S(=O)(=O)Nc1cccc(NCc2cccc(C)c2)c1 [Example 25] |  |  |  |  |  |  | <5% | <5% | 32% | 21% | 88% | 97% |  |  | 
13 | COc1ccc(-c2cccc(C(=O)N(C)C)c2)cc1S(=O)(=O)Nc1cccc(NC(=O)Nc2ccccc2C)c1 [Example 51] |  |  |  |  |  |  | <5% | 36% | 67% | 93% | 85% | 88% |  |  | 
14 | COc1cccc(CNc2cccc(NS(=O)(=O)c3cc(-c4cccc(C(=O)N(C)C)c4)ccc3OC)c2)c1 [Example 23] |  |  |  |  |  |  | <5% | 10% | 51% | 54% | 95% | 86% |  |  | 
15 | COc1ccc(-c2cccc(C(=O)N(C)C)c2)cc1S(=O)(=O)Nc1cccc(NC(=O)Nc2cccc(Br)c2)c1 [Example 50] |  |  |  |  |  |  | <5% | <5% | <5% | 100% | 94% | 97% |  |  | 
16 | COc1ccc(-c2cccc(C(=O)N(C)C)c2)cc1S(=O)(=O)Nc1cccc(NC(=O)Nc2ccc(Br)cc2)c1 [Example 42] |  |  |  |  |  |  | <5% | <5% | <5% | 93% | 109% | 95% |  |  | 
17 | COc1ccc(-c2cccc(C(=O)N(C)C)c2)cc1S(=O)(=O)Nc1cccc(NC(=O)Nc2ccc(C)cc2)c1 [Example 56] |  |  |  |  |  |  | <5% | <5% | 19% | 95% | 96% | 82% |  |  | 
18 | COc1ccc(CNc2cccc(NS(=O)(=O)c3cc(-c4cccc(C(=O)N(C)C)c4)ccc3OC)c2)cc1 [Example 22] |  |  |  |  |  |  | <5% | 47% | 82% | 57% | 61% | 48% |  |  | 
19 | COc1ccc(-c2cccc(C(=O)N(C)C)c2)cc1S(=O)(=O)Nc1cccc(NC(=O)Nc2ccc(NC(=NC(=O)OC(C)(C)C)NC(=O)OC(C)(C)C)cc2)c1 [Example 58] |  |  |  |  |  |  | <5% | <5% | <5% | <5% | <5% | 63% |  |  | 
20 | COc1ccc(-c2cccc(C(=O)N(C)C)c2)cc1S(=O)(=O)Nc1cccc(NC(=O)Nc2cccc(C(=O)O)c2)c1 [Example 48] |  |  |  |  |  |  | <5% | <5% | <5% | <5% | <5% | 14% |  |  | 
